{"source": "patent US12090204B2", "about": "“Photodynamic therapy compositions and methods of use thereof” (Pinnacle Biologics, Inc., priority 2020, dated 2024)", "key": {"[1]": {"test_system": "B. thurigiensis (+)", "assay": "porfimer sodium aPDT, planktonic culture", "type": "cell-based, Bacillus thuringiensis", "details": "630 nm, 200 J/cm2, porfimer sodium 125 μg/mL", "procedure": "(§1) Bacteria were routinely cultured using tryptic soy broth or agar at 37° C. in a 5% CO2 incubator. Bacteria were isolated and suspended with 0.9% NaCl to an Optical Density (OD) of 0.1 taken at 630 nm, to generate the inoculum used for either planktonic or biofilm assays.\nExperiments using planktonic cultures were carried out using M. catarrhalis, as a standard for further comparisons and to determine the effective drug concentration, porfimer sodium incubation time and light dose parameters which would provide an effective cell kill at the level of 5-7 logs. Once determined the experiments were repeated for all other bacterial strains examined.\nThe colony forming units (CFU) per mL of the starting inoculum for every experiment was determined by dilution plating. […]\n(§2) Bacteria were exposed to 630 nm laser light via a fiber optic with a lens affixed to the distal end to provide a uniform diverging light field. […] Power output of the laser was measured using a UDT/Gamma Scientific 371 optical power meter and an integrating sphere. […]\n(§3) Biofilms were formed on glass coupons in culture dishes containing a bacterial inoculum for 48 hours under conditions specific to the strain. […] Power output of the laser was measured using a UDT/Gamma Scientific 371 optical power meter and an integrating sphere. […]"}, "[2]": {"test_system": "P. anaerobius (+)", "assay": "porfimer sodium aPDT, 48 hour biofilm culture", "type": "cell-based, Peptostreptococcus anaerobius", "details": "630 nm, kill at 100 J/cm2 (light dose 75-100 J/cm2), porfimer sodium 250 μg/mL", "procedure": "as §1\nThe colony forming units (CFU) per mL of the starting inoculum for every experiment was determined by dilution plating. Control samples were exposed to laser at 630 nm in the absence of porfimer sodium, porfimer sodium in the absence of laser exposure, or in saline alone in the absence of porfimer sodium and 630 nm laser light. All experimental samples were dilution plated to enumerate viable CFU's. Three independent replicates were performed for each reaction condition per strain per assay. […]\nas §2, §3"}, "[3]": {"test_system": "methicillin-resistant Staphylococcus aureus (MRSA), Staphylococcus aureus ATCC BAA 1768", "assay": "partial thickness wound model, microbial load in wound swabs (Example 4)", "type": "in vivo, Yorkshire pig", "details": "for overall decrease of mean microbial load in wound swabs over the course of treatment (SD1 to SD3): untreated Group 2: 20-fold; for WOUND SWABS (CFU/mL) 24 hr. Post-Treat 2 / WOUND SWABS (CFU/mL) Immediately Post-Treat 2 / WOUND SWABS (CFU/mL) Pre-treat 2 / WOUND SWABS (CFU/mL) Pre-Treat 1: individual wounds; for WOUND SWABS (CFU/mL) Pre-Treat 1: 1.0 mg/mL", "procedure": "Bacteria strains were obtained from ATCC (Manassas, VA). Bacteria were propagated from glycerol stock store at −80° C. A stab of the glycerol stock was used to inoculate 5 mL of trypticase soy broth. The cultures were incubated overnight at 37° C. with shaking at 250 rpm. The following day, a portion of overnight culture was used to prepare a streak plate onto an Oxacillin screen plate which was incubated overnight at 37° C. and single colony isolates of freshly plated bacteria were used to prepare bacterial inoculum. The morning of wounding an infection, a portion of overnight culture was used to inoculate 50 mL of trypticase soy broth and the newly inoculated media was incubated at 37° C. with shaking at 250 rpm until log phase growth was reached. The bacteria were pelleted by centrifugation at 4,000 rpm at 4° C. for 10 minutes in a Sorval tabletop centrifuge. The culture supernatant was discarded, and the bacterial pellets were suspended in a volume of sterile PBS to yield a concentration of 2×10^7 CFU/mL.\nWounds were swabbed with a sterile cotton tipped applicator in a serpentine motion starting at the upper left-hand margin of the wound and ending at the bottom right wound margin. A dry sterile cotton tipped applicator was used for all wounds. The swabs were placed into 14 mL falcon tubes containing 1 mL of sterile PBS. The tubes were vigorously vortexed and serial 10-fold dilutions of the PBS in the tubes containing the swabs were prepared. One hundred microliters of select dilutions for wound groups were plated onto agar plates. The plates were incubated at 35-37° C. and colonies enumerated manually. The data are reported as CFU/swab normalized to the volume of PBS in which the swabs were placed.\nThis study evaluated the ability of porfimer sodium to reduce/eliminate microbial colonization and biofilm from surgical sites in a partial thickness would healing model. The study was conducted in a single female Yorkshire pig over the course of five days. A dermatome was used to create 20 partial thickness wounds. Sixteen of the wounds were infected with methicillin-resistant Staphylococcus aureus (MRSA), and four were designated as uninfected controls. The wounds were bandaged and the bacterial biofilm allowed to develop for 48 hours.\nDesignated infected wounds were subjected to two courses of treatment with the test article at a periodicity of 24 hours. Article dose concentration of 1.0 mg/mL of porfimer sodium was prepared as described in Example 3, and used immediately, with the exception of two wounds (L6 and L7) where the test article (reconstituted porfimer sodium) was mixed 1:1 with NeilMed NasalGel.\nTreatments consisted of application of the test article followed by photoactivation with one or two intensities of light, 150 J/cm^2 or 200 J/cm^2 (Table 3). Wounds were evaluated for microbial load prior to each course of treatment, immediately following the final treatment and 24 hours following the final treatment. Tissue specimens from infected and non-infected wounds were harvested for histology of biofilm formation at each treatment time point. Tissue specimens from treated wounds were harvested 24 hours following the final treatments for histology."}, "[4]": {"details": "Group 4 (200 J/cm^2), N 3, without wounds L6, R5, R9"}}, "note": "“And” between values parts separate entries of the source, which are not always exact repeats. Equal values may be shown once.", "data": [{"substance": "porfimer sodium", "values": [{"measurement": "Rate of kill", "setting": "[1]", "value": ">6", "unit": "Log"}, {"measurement": "Rate of kill", "setting": "[2]", "value": ">6", "unit": "Log"}, {"measurement": "Mean microbial load, Posttreat 2 (swab)", "setting": "[3]; Group 3 (150 J/cm^2), N 6", "value": "5.33E+03", "unit": "CFU/swab"}, {"measurement": "Mean microbial load, Pretreat 1 (swab)", "setting": "[3]; Group 3 (150 J/cm^2), N 6", "value": "9.91E+05", "unit": "CFU/swab"}, {"measurement": "Mean microbial load, Pretreat 2 (swab)", "setting": "[3]; Group 3 (150 J/cm^2), N 6", "value": "1.90E+05", "unit": "CFU/swab"}, {"measurement": "additional decrease of mean microbial load in wound swabs following Treatment 2", "setting": "[3]; Group 3, 150 J/cm^2", "value": 36, "unit": "fold"}, {"measurement": "decrease of mean microbial load in wound swabs following treatment 1 (SD1 to SD2)", "setting": "[3]; Group 3, 150 J/cm^2", "value": 5.2, "unit": "fold"}, {"measurement": "overall decrease of mean microbial load in wound swabs over the course of treatment (SD1 to SD3)", "setting": "[3]; Group 3, 150 J/cm^2", "value": 186, "unit": "fold"}, {"measurement": "WOUND SWABS (CFU/mL) 24 hr. Post-Treat 2", "setting": "[3]; Group 3 = 150 J/cm2 treatment", "value": "1.14E+04 CFU/mL and 1.17E+04 CFU/mL and 3.50E+02 CFU/mL and 2.65E+03 CFU/mL and 4.30E+03 CFU/mL"}, {"measurement": "WOUND SWABS (CFU/mL) Immediately Post-Treat 2", "setting": "[3]; Group 3 = 150 J/cm2 treatment", "value": "1.92E+05 CFU/mL and 6.16E+03 CFU/mL"}, {"measurement": "WOUND SWABS (CFU/mL) Pre-treat 2", "setting": "[3]; Group 3 = 150 J/cm2 treatment", "value": "8.80E+04 CFU/mL and 6.60E+05 CFU/mL and 2.74E+03 CFU/mL and 4.20E+04 CFU/mL and 3.45E+05 CFU/mL"}, {"measurement": "WOUND SWABS (CFU/mL) Pre-Treat 1", "setting": "[3]; Group 3 = 150 J/cm2 treatment", "value": "6.30E+05 CFU/mL and 3.03E+06 CFU/mL and 2.88E+05 CFU/mL and 4.00E+03 CFU/mL and 5.40E+04 CFU/mL"}, {"measurement": "Mean microbial load, Posttreat 2 (swab)", "setting": "[3]; [4]", "value": "1.16E+03", "unit": "CFU/swab"}, {"measurement": "Mean microbial load, Pretreat 1 (swab)", "setting": "[3]; [4]", "value": "8.53E+05", "unit": "CFU/swab"}, {"measurement": "Mean microbial load, Pretreat 2 (swab)", "setting": "[3]; [4]", "value": "5.11E+05", "unit": "CFU/swab"}, {"measurement": "additional decrease of mean microbial load in wound swabs following Treatment 2", "setting": "[3]; Group 4, 200 J/cm^2", "value": 250, "unit": "fold"}, {"measurement": "decrease of mean microbial load in wound swabs following treatment 1 (SD1 to SD2)", "setting": "[3]; Group 4, 200 J/cm^2", "value": 1.7, "unit": "fold"}, {"measurement": "overall decrease of mean microbial load in wound swabs over the course of treatment (SD1 to SD3)", "setting": "[3]; Group 4, 200 J/cm^2", "value": 735, "unit": "fold"}, {"measurement": "WOUND SWABS (CFU/mL) 24 hr. Post-Treat 2", "setting": "[3]; Group 4 = 200 J/cm2 treatment", "value": "1.55E+03 CFU/mL and 1.79E+02 CFU/mL and 1.75E+03 CFU/mL and 3.15E+03 CFU/mL and 2.31E+02 CFU/mL"}, {"measurement": "WOUND SWABS (CFU/mL) Immediately Post-Treat 2", "setting": "[3]; Group 4 = 200 J/cm2 treatment", "value": "4.20E+04 CFU/mL and 2.80E+04 CFU/mL"}, {"measurement": "WOUND SWABS (CFU/mL) Pre-treat 2", "setting": "[3]; Group 4 = 200 J/cm2 treatment", "value": "1.40E+04 CFU/mL and 2.00E+04 CFU/mL and 1.50E+06 CFU/mL and 1.44E+06 CFU/mL and 7.60E+00 CFU/mL"}, {"measurement": "WOUND SWABS (CFU/mL) Pre-Treat 1", "setting": "[3]; Group 4 = 200 J/cm2 treatment", "value": "2.42E+05 CFU/mL and 2.60E+04 CFU/mL and 2.29E+06 CFU/mL and 0.00E+00 CFU/mL (2×)"}, {"measurement": "consistency of results when applied directly to infected wounds", "setting": "[3]; porfimer sodium mixed in saline", "value": "inconsistency in the results"}]}]}
